# Earlier results, collected in US20230149829A1, “ORAL COMPOSITIONS OF PLANTS THROUGH A DOUBLE EXTRACTION SYSTEM AND METHODS OF MAKING THE SAME” (Nulixir Inc., priority 2021, published 2023).
# How the values were obtained:
# [1] = n-octanol and water; categorization assumed at pH=7 unless stated otherwise
Compound,log P [1],inhibitory activity against fungi (many strains of fungi)
CC(=O)OC1C=CC(=O)N(C(=O)CCc2ccccc2)C1 (stereo not drawn) [pipermethystine],~1.8,
"COC1=CC(=O)OC(/C=C/c2ccc(OC)cc2)C1 (stereo not drawn) [5,6-dihydroyangonin]",~2.5,
schisandroside C,~1.6,
CC(C)=C[C@@H]1CO[C@]23C[C@]4(CO2)[C@H](CC[C@@H]2[C@@]5(C)CC[C@H](O[C@@H]6OC[C@H](O)[C@H](O[C@@H]7O[C@H](CO)[C@@H](O)[C@H](O)[C@H]7O)[C@H]6O[C@@H]6O[C@@H](CO)[C@H](O)[C@H]6O)C(C)(C)[C@@H]5CC[C@]24C)[C@H]3[C@@]1(C)O [bacopasaponin C],~2,
COc1ccc([C@@]23C=CC(=O)C[C@@H]2N(C)CC3)cc1OC [mesembrenone],~1.3,
O=CC=Cc1ccccc1 [Cinnamaldehyde],,strong inhibitory activity
COc1ccc(C23C=CC(O)CC2N(C)CC3)cc1OC (stereo not drawn) [mesembrenol],~2.4,
COc1cc([C@H]2Oc3cc(O)c4c(=O)c(O)c(-c5ccc(O)cc5)oc4c3O[C@@H]2CO)ccc1O [rhodiolin],~2,
hericerin,~6.4,
N#C[C@@]1(O[C@@H]2O[C@H](CO)[C@@H](O)[C@H](O)[C@H]2O)C=C[C@@H](O)C1 [tetraphyllin B],~−2.5,
"COc1ccc(CCc2cc(OC)cc(=O)o2)cc1 [7,8-dihydroyangonin]",~2.9,
"COc1cc2c(c(OC)c1OC)-c1c(cc3c(c1OC)OCO3)CC(C)C(C)C2 (single isomer, unassigned; (-)) [(−)-schisandrin B]",~4,
COc1ccc([C@@]23CCC(=O)C[C@@H]2N(C)CC3)cc1OC [mesembrine],~1.5,
herinacine A,~2.5,
COc1cc2c(c(OC)c1OC)-c1c(cc(OC)c(OC)c1OC)C[C@](C)(O)[C@@H](C)C2 [(+)-schisandrin],~5,
COc1cc2c(c(OC)c1OC)-c1c(cc(OC)c(OC)c1OC)C[C@H](C)[C@H](C)C2 [(−)-schisandrin A],~3.6,
CC(C)=CCC[C@](C)(O[C@@H]1O[C@H](CO)[C@@H](O)[C@H](O)[C@H]1O)[C@H]1CC[C@]2(C)[C@@H]1[C@H](O)C[C@@H]1[C@@]3(C)CC[C@H](O)C(C)(C)[C@@H]3[C@@H](O[C@@H]3O[C@H](CO)[C@@H](O)[C@H](O)[C@H]3O)C[C@]12C [ginsenoside rg1],~0.8,
bacopaside B,~2.8,
CC1=C(CO)C(=O)O[C@@H]([C@@H](C)[C@H]2CC[C@H]3[C@@H]4C[C@H](Cl)[C@]5(O)[C@@H](O)C=CC(=O)[C@]5(C)[C@H]4CC[C@]23C)C1 [6a-chloro-5b-hydroxywithaferin A],~3.2,
CC(C)=CCC[C@](C)(O[C@@H]1O[C@H](CO[C@@H]2O[C@H](CO)[C@@H](O)[C@H](O)[C@H]2O)[C@@H](O)[C@H](O)[C@H]1O)[C@H]1CC[C@]2(C)[C@@H]1[C@H](O)C[C@@H]1[C@@]3(C)CC[C@H](O[C@@H]4O[C@H](CO)[C@@H](O)[C@H](O)[C@H]4O[C@@H]4O[C@H](CO)[C@@H](O)[C@H](O)[C@H]4O)C(C)(C)[C@@H]3CC[C@]12C [ginsenoside rb1],~−1,
"COC1=CC(=O)O[C@@H](CCc2ccc3c(c2)OCO3)C1 [7,8-dihydromethysticin]",~2.2,
CC(C)=C[C@H]1C[C@](C)(O)[C@@H]2[C@H]3CC[C@@H]4[C@@]5(C)CC[C@H](O[C@@H]6OC[C@H](O)[C@H](O[C@@H]7O[C@H](CO)[C@@H](O)[C@H](O)[C@H]7O)[C@H]6O[C@@H]6O[C@@H](CO)[C@H](O)[C@H]6O)C(C)(C)[C@@H]5CC[C@@]4(C)[C@@]34CO[C@@]2(C4)O1 [bacopaside X],~2.2,
COc1cc(/C=C\c2ccc(OC)c(O)c2)oc(=O)c1 [11-hydroxyyangonin],~2.2,
(R)-kawain,~2.7,
tortuosomine,~3,
CC(C)=C[C@H]1C[C@](C)(O)[C@H]2[C@H]3CC[C@@H]4[C@@]5(C)CC[C@H](O[C@@H]6O[C@H](CO)[C@@H](O)[C@H](O[C@@H]7O[C@H](CO)[C@@H](O)[C@H](O)[C@H]7O)[C@H]6O[C@@H]6O[C@@H](CO)[C@H](O)[C@H]6O)C(C)(C)[C@@H]5CC[C@@]4(C)[C@@]34CO[C@@]2(C4)O1 [bacoside A3],~2.1,
methylliberine,~−0.083,
